{
  "source": "paper PMC9862819",
  "about": "“Structural Characterization of Murine Phosphodiesterase 5 Isoforms and Involvement of Cysteine Residues in Supramolecular Assembly” (International Journal of Molecular Sciences, 2023)",
  "key": {"MmPDE5A3 [1]": {"target": "T1, MmPDE5A3 (Mus musculus, UniProt Q8CG03)", "experiment": "[3H]cGMP hydrolysis assay; also spectrophotometric thiol titration and native PAGE", "type": "biochemical", "parameters": "gene Pde5a; full-length MmPDE5A3 isoform (823 amino acids common to the three isoforms), 3XFLAG tag"}, "MmPDE5A3 [2]": {"target": "T1, MmPDE5A3", "experiment": "native PAGE conformational shift; [3H]cGMP hydrolysis; added protection of Cys with sildenafil", "type": "binding", "parameters": "gene Pde5a; full-length MmPDE5A3 isoform (823 amino acids common to the three isoforms), 3XFLAG tag"}, "MmPDE5A3 [3]": {"target": "T1, MmPDE5A3", "parameters": "gene Pde5a"}},
  "data": [
    {"smiles": "O=C(O)c1cc(SSc2ccc([N+](=O)[O-])c(C(=O)O)c2)ccc1[N+](=O)[O-]", "note": "[DTNB, 5,5-dithio-bis-(2-nitrobenzoic acid)]", "values": [
      {"measurement": "IC50", "setting": "MmPDE5A3 [1]", "result": "~30", "unit": "µM"}
    ]},
    {"smiles": "Nc1nc2c(ncn2[C@@H]2O[C@@H]3COP(=O)(O)O[C@H]3[C@H]2O)c(=O)[nH]1", "note": "[cGMP]", "values": [
      {"measurement": "native PAGE conformational shift; [3H]cGMP hydrolysis; added protection of Cys w", "setting": "MmPDE5A3 [2]", "result": "the conformation of D3 was also the main outcome of the binding of the substrate and inhibitor (cGMP and sildenafil"}
    ]},
    {"smiles": "CCCc1nn(C)c2c(=O)[nH]c(-c3cc(S(=O)(=O)N4CCN(C)CC4)ccc3OCC)nc12", "note": "[Sild, sildenafil]", "values": [
      {"measurement": "native PAGE conformational shift and protection of Cys from DTNB titration", "setting": "MmPDE5A3 [3]", "result": "the reactive Cys were close to the active site and were shielded by the inhibitor"}
    ]}
  ]
}
